# Entries after “also recorded” stand apart in the source; their conditions may differ.
# Legend:
# SRD5A = assay: Tissue DHT levels (LC-MS/MS), Selenium and Finasteride Pre-Treatment Trial; type: in vivo, human; details: research subjects with CaP before radical prostatectomy, benign and malignant macro-dissected samples; data not shown
# VCaP cells = assay: Androgen levels (LC-MS/MS) in VCaP cells; type: cell-based, human; details: for DHT levels after substrate treatment: VCaP, 12 h in SFM with 20 nM DIOL, 20 nM AND or 1 nM T, one cell pellet per condition; for DHT levels / DHT synthesis: VCaP in SFM, 1 μM dutasteride 12 h, no substrate added
# Procedure: FIG. 8: Intracellular T and DHT levels from VCaP cells; Related to FIG. 3. VCaP cells were treated for 12 h in SFM with or without 1 μM Dut, 1 nM T, 20 nM DIOL or 20 nM AND. VCaP cells were harvested, one cell pellet was analyzed for each condition and androgen levels were measured using LC-MS/MS as described in Methods.
# (§1) Experiments were performed in triplicate.
# (§2) Empty plasmid, or plasmids for over-expression of RDH16 wild-type or RDH16-Y176F, K180R, were expressed into VCaP, C4-2 or CWR-R1 cells and DHT levels were measured using LC-MS/MS. […] C4-2 cells produced measurable levels of DHT that were reduced by dutasteride treatment (p=0.001; FIG. 6C; Table 10). […] C4-2 cells that expressed RDH16-Y176, K180R produced DHT levels similar to C4-2 cells with empty plasmid.
# LAPC-4 cells = assay: Androgen levels (LC-MS/MS) in transfected LAPC-4 cells; type: cell-based, human; details: for 5α-dione production after substrate treatment: 20 nM DIOL or 20 nM AND 12 h; for DHT levels after substrate treatment: 20 nM DIOL or 1 nM T 12 h, vs SFM
# Procedure: LAPC-4 cells were plated at 1.2×10^5/well and CV-1 cells at 1×10^4/well in 6-well tissue culture plates (Corning). Media and cell pellets from two 6-well plates were combined to generate 1 media and 1 cell pellet sample for liquid chromatography-tandem mass spectrometry (LC-MS/MS) analysis. LAPC-4 cells were transfected using the Effectene Transfection Kit (Invitrogen, Grand Island, N.Y.). Forty-eight h after transfection, growth media was removed and LAPC-4 cells were washed once with Dulbecco's phosphate buffered saline (PBS, Corning). LAPC-4 cells were treated with serum-free complete media (SFM, Corning) alone or with 1 nM T, 20 nM DIOL 20 nM 5α-androstan-3α-ol-17-one (androsterone; AND) (Steraloids, Newport, R.I.) or 1 μM dutasteride (Selleckchem, Houston, Tex.) for 12 h. CV-1 cells were transfected using X-tremeGene HP transfection reagent (Roche Diagnostics Corporation, Indianapolis, Ind.). After 48 h, growth media were aspirated, CV-1 cells were washed once with PBS and incubated in SFM alone or with 20 nM AND (Steraloids) for 12 h.
# After 12 h treatment, media (total 24 mL) were collected in 50 mL conical tubes (Corning). Cells were released using trypsin and collected in 15 mL conical tubes (Corning). The cells were washed 3 times using PBS, re-suspended in 1 mL PBS and 5% of the cell suspension was removed for protein concentration measurement and western blot analysis. The remaining 95% of the cell suspension was centrifuged and the supernatant was removed and discarded. Cell pellets were stored at −80° C. until analyzed using LC-MS/MS.
# (§3) Cell pellet and media samples were analyzed over 9 runs for 5 androgens T, DHT, dehydroepiandrosterone, ASD and AND using a validated LC-MS/MS method. […] Study samples were quantitated using aqueous-based spiked calibration standards and pre-spiked quality control samples prepared in 2× charcoal-stripped human postmenopausal female plasma (Bioreclamation, LLC, Westbury, N.Y.).
# Androgen concentrations (pmoles/mg protein) in cell lysates measured using LC-MS/MS (ng/mL) were multiplied by the total volume of the lysate (1 mL), normalized by the total amount of protein of the cell pellet (mg), divided by the molecular weight of the androgen (ng/nmole), and converted to pmoles. Media androgen concentrations (ng/mL) were multiplied by the total volume of media (24 mL), normalized against total protein of the cell culture (mg), divided by the molecular weight of the androgen (ng/nmole) and converted to pmoles. Cell pellet and media androgen concentrations were reported combined in Results and separately in Supplemental Results. Experiments were performed in triplicate.
# Cell pellets were resuspended in HPLC-grade water and vortexed or sonicated to disrupt cell membranes to obtain a homogeneous suspension. Samples were extracted using 0.25 ml quality control, plasma blank or sample in 0.75-2.0 mL HPLC-grade water, 0.1 ml internal standard (IS) solution (75.0/225 pg/mL d3-T/d3-DHT) and 4 mL methyl-tert-butyl ether (MTBE, Omnisolve®, EMD Milipore, Billerica, Mass.) in glass screw-top tubes. Calibrators were prepared using 50 μl spiking solution prepared in 75% methanol and added to the extraction tube. Either the entire 1 mL cell pellet suspension was added to the extraction tube and the original container rinsed with 25% methanol in water or samples were volume and compositionally corrected. Tubes were capped with Teflon-lined caps, vortexed, rotated 15 min and centrifuged using a Sorvall model RT6000B centrifuge (Thermo Scientific) at 2,800 rpm and 4° C. for 15-30 min to separate liquid phases. The aqueous phase was frozen in a dry ice/acetone bath and MTBE layer was poured into a clean glass conical tube. MTBE was evaporated at 37° C. with nitrogen and the residue was reconstituted with 60% methanol. The suspension was centrifuged using Heraeus Multifuge X3R centrifuge (Thermo Scientific) at 2,800 rpm and 4° C. for 5 min to separate insoluble materials. An aliquot of the supernatant was injected. […]
# CV-1 cells = details: CV-1, 20 nM AND 12 h, measurable only in the media
# Procedure: LAPC-4 cells were plated at 1.2×10^5/well and CV-1 cells at 1×10^4/well in 6-well tissue culture plates (Corning). Media and cell pellets from two 6-well plates were combined to generate 1 media and 1 cell pellet sample for liquid chromatography-tandem mass spectrometry (LC-MS/MS) analysis. LAPC-4 cells were transfected using the Effectene Transfection Kit (Invitrogen, Grand Island, N.Y.). Forty-eight h after transfection, growth media was removed and LAPC-4 cells were washed once with Dulbecco's phosphate buffered saline (PBS, Corning). […]
# After 12 h treatment, media (total 24 mL) were collected in 50 mL conical tubes (Corning). […] Cell pellets were stored at −80° C. until analyzed using LC-MS/MS.
# as §3
# Androgen concentrations (pmoles/mg protein) in cell lysates measured using LC-MS/MS (ng/mL) were multiplied by the total volume of the lysate (1 mL), normalized by the total amount of protein of the cell pellet (mg), divided by the molecular weight of the androgen (ng/nmole), and converted to pmoles. […]
# CWR-R1 cells = assay: DHT levels (LC-MS/MS) in transfected CWR-R1 cells; type: cell-based, human
# Procedure: as §1, §2
# [1] = CaP, background statement; cited from earlier work
# LNCaP cells = assay: Androgen levels (LC-MS/MS) in transfected LNCaP cells; type: cell-based, human; details: dutasteride 12 h, cell pellet
# Procedure: FIG. 11: Intracellular LNCaP T levels after treatment with dutasteride or SFM. Related to FIG. 6. LNCaP cells were transfected with empty plasmid, wild-type or Y176F, K180R RDH16, treated with SFM or SFM with dutasteride for 12 h and cell pellet androgen levels were measured using LC-MS/MS. T levels for LNCaP and western blot analysis for DDK tag.
# as §1
# C4-2 cells = assay: DHT levels (LC-MS/MS) in transfected C4-2 cells; type: cell-based, human
# Procedure: as §1, §2
smiles,measurement,setting,value
CC(C)(C)NC(=O)[C@H]1CC[C@H]2[C@@H]3CC[C@H]4NC(=O)C=C[C@]4(C)[C@H]3CC[C@]12C [finasteride],CaP tissue levels of DHT,SRD5A,decreased
"C[C@]12CC[C@@H](O)C[C@@H]1CC[C@@H]1[C@@H]2CC[C@]2(C)C(=O)CC[C@@H]12 [AND, 5α-androstan-3α-ol-17-one]",DHT levels after substrate treatment,VCaP cells,increased
same,5α-dione production after substrate treatment,LAPC-4 cells; LAPC-4 with empty plasmid,produced
same,5α-dione production after substrate treatment,CV-1 cells,only a small amount
"C[C@]12CC[C@@H](O)C[C@@H]1CC[C@@H]1[C@@H]2CC[C@]2(C)[C@@H](O)CC[C@@H]12 [DIOL, 5α-androstane-3α, 17β-diol]",DHT levels after substrate treatment,VCaP cells,increased
same,DHT levels after substrate treatment,LAPC-4 cells; LAPC-4 with empty plasmid,higher
same,5α-dione production after substrate treatment,LAPC-4 cells; LAPC-4 with empty plasmid,produced
"C[C@]12CC[C@H]3[C@@H](CCC4=CC(=O)CC[C@@]43C)[C@@H]1CC[C@@H]2O [T, testosterone]",DHT levels after substrate treatment,VCaP cells,not
same,DHT levels after substrate treatment,LAPC-4 cells; LAPC-4 with empty plasmid,higher
C[C@]12C=CC(=O)N[C@@H]1CC[C@@H]1[C@@H]2CC[C@]2(C)[C@@H](C(=O)Nc3cc(C(F)(F)F)ccc3C(F)(F)F)CC[C@@H]12 [dutasteride],DHT levels,"VCaP cells; VCaP expressing wild-type RDH16, dutasteride vs SFM",affected minimally
same,DHT levels / DHT synthesis,VCaP cells,did not lower
same,DHT levels / DHT synthesis,VCaP cells; listed as Dutasteride,did not impair DHT synthesis
same,DHT levels,"CWR-R1 cells; CWR-R1 expressing RDH16-Y176F, K180R, dutasteride vs SFM",appeared lower
same,DHT levels,"CWR-R1 cells; CWR-R1 with empty plasmid or wild-type RDH16, dutasteride vs SFM",did not lower
same,DHT levels,"LAPC-4 cells; LAPC-4 expressing mutant RDH16 or DHRS9 plus dutasteride, vs LAPC-4 treated with dutasteride alone",lowered further
same,DHT levels,"LAPC-4 cells; LAPC-4 expressing wild-type RDH16 or DHRS9, 1 μM dutasteride 12 h vs SFM",No effect
same,DHT levels,"LAPC-4 cells; LAPC-4 with empty plasmid, 1 μM dutasteride 12 h vs SFM, cell pellet, p=0.041",decreased; also recorded: lower
same,T levels,"LAPC-4 cells; all LAPC-4 cells except those expressing RDH5-Δcat, dutasteride 12 h, cell pellet",lowered
same,intratumoral DHT levels,[1],not depleted
same,T levels,LNCaP cells,not detected
same,DHT levels,"C4-2 cells; C4-2 expressing wild-type RDH16, dutasteride vs SFM",appeared to be reduced
same,DHT levels,"C4-2 cells; C4-2 with empty plasmid, dutasteride vs SFM, p=0.001 in text",reduced

# Reference: patent US20210252115A1, “INHIBITION OF CATALYTIC SITE COMMON TO MULTIPLE 3 ALPHA-OXIDOREDUCTASES FOR TREATMENT OF PROSTATE CANCER” (Health Research, Inc., priority 2016, published 2021)
